{
  "source": "patent US20110178092A1",
  "about": "“HIV-1 Protease Inhibitors” (priority 2005, published 2011)",
  "type_in_all_cases": "biochemical",
  "key": {"[1]": {"molecular_target": "HIV-1 protease MDR mutant M1 (L10I, G48V, I54V, L63P, V82A) (Human immunodeficiency virus type 1 group M subtype B, UniProt P04585, G536V/I542V/L498I/L551P/Q495K/V570A)", "details": "qualitative statement", "from_the_text": "(§1) The mutant variants were selected by examining the Stanford HIV-1 Drug Resistance Database (http://hivdb.stanford.edu) of HIV-1 infected-patient sequences of viral isolates. […] (Wu, T. D. et al. J. Virol. 2003, 77, 4836-4847.) These MDR mutant variants are L10I, G48V, I54V, L63P, V82A (M1), D30N, L63P, N88D (M2), and L10I, L63P, A71V, G73S, I84V, L90M (M3).\n(§2) The energy transfer donor (EDANS) and acceptor (DABCYL) were labeled at its two ends respectively to perform FRET. Fluorescence measurements were carried out on PTI fluorescence spectrophotometer (Photon Technology International) at 30° C. Excitation and emission wavelengths were set at 340 nm and 490 nm, respectively. Each reaction was recorded for about 10 min. Wide type HIV-1 protease (Q7K) and its MDR mutants M1 (L10I, G48V, I54V, L63P, V82A), M2 (D30N, L63P, N88D), and M3 (L10I, L63P, A71V, G73S, I84V, L90M) were desalted through PD-10 columns (Amersham Biosciences). Sodium Acetate (20 mM, pH 5) was used as elution buffer. Apparent protease concentrations were around 50 nM estimated by UV spectrophotometer (Shimadzu) at 280 nm. All inhibitors were dissolved in DMSO and diluted to appropriate concentrations. Protease (2 μL) and inhibitor (2 μL) or DMSO were mixed and incubated for 20-30 min at room temperature before initialing substrate cleavage reaction. Throughout this work, 150 μL of 1 μM substrate was used. Substrate buffer is composite of 0.1 M sodium acetate, 1 M sodium chloride, 1 mM ethylenediaminetetraacetic acid (EDTA), 1 mM dithiothreitol (DTT), 2% dimethylsulfoxide (DMSO) and 1 mg/mL bovine serum albumin (BSA) with an adjusted pH 4.7. Inhibitor binding dissociation constant (Ki) was obtained by nonlinear regression fitting (GraFit 5, Erithacus software) to the plot of initial velocity as a function of inhibitor concentrations based on Morrison equation."}, "[2]": {"molecular_target": "HIV-1 protease MDR mutant M2 (D30N, L63P, N88D) (Human immunodeficiency virus type 1 group M subtype B, UniProt P04585, D518N/L551P/N576D/Q495K)", "details": "qualitative statement", "from_the_text": "as §1, §2"}, "[3]": {"molecular_target": "HIV-1 protease MDR mutant M3 (L10I, L63P, A71V, G73S, I84V, L90M) (Human immunodeficiency virus type 1 group M subtype B, UniProt P04585, A559V/G561S/I572V/L498I/L551P/L578M/Q495K)", "details": "qualitative statement", "from_the_text": "as §1, §2"}, "[4]": {"molecular_target": "T1, wild type HIV-1 protease (Q7K) (Human immunodeficiency virus type 1 group M subtype B, UniProt P04585, Q495K)", "T1 construct": "Wide type HIV-1 protease (Q7K)", "assay": "FRET HIV-1 protease inhibition assay, wild type", "method": "Biological Evaluation of Selected Compounds of the Invention. HIV protease inhibitor activities were determined by fluorescence resonance energy transfer (FRET) method. […] Inhibitor binding dissociation constant (Ki value) was obtained by nonlinear regression fitting to the plot of initial velocity as a function of inhibitor concentration based on Morrison equation.\nas §2"}, "[5]": {"details": "wild type HIV-1 protease (Q7K), FRET, in triplicate, read-out: Ki"}},
  "note": "Read-outs that look alike come from different tables or passages of the source.",
  "data": [
    {"molecule": "Cc1cccc(C)c1OCC(=O)N[C@@H](Cc1ccccc1)[C@@H](O)C[C@H](Cc1ccccc1)NC(=O)[C@H](C(C)C)N1CCCNC1=O", "note": "[LPV, lopinavir]", "values": [
      {"measurement": "activity against M1 mutant relative to wild type (in words)", "setting": "[1]", "result": "significantly loses activity"},
      {"measurement": "activity against M2 mutant relative to wild type (in words)", "setting": "[2]", "result": "retains high affinity"},
      {"measurement": "activity against M3 mutant relative to wild type (in words)", "setting": "[3]", "result": "significantly loses activity"}
    ]},
    {"molecule": "COc1ccc(S(=O)(=O)N(CC(C)C)C[C@@H](O)[C@H](Cc2ccccc2)NC(=O)[C@@H]2CN(c3cccc(F)c3)C(=O)O2)cc1F", "note": "[27b, (5S)—N-[(1S,2R)-1-Benzyl-3-[[(3-fluoro-4-methoxyphenyl)sulfonyl](isobutyl)amino]-2-hydroxypropyl]-3-(3-fluorophenyl)-2-oxo-oxazolidine-S-carboxamide]", "values": [
      {"measurement": "Ki", "setting": "[4]; [5]", "result": 0.07, "unit": "nM"}
    ]},
    {"molecule": "COc1ccc(S(=O)(=O)N(CC(C)C)C[C@@H](O)[C@H](Cc2ccccc2)NC(=O)[C@@H]2CN(c3cccc(C(F)(F)F)c3)C(=O)O2)cc1", "note": "[21d, (5S)—N-[(1S,2R)-1-Benzyl-2-hydroxy-3-[isobutyl[(4-methoxyphenyl)sulfonyl]amino]-propyl]-2-oxo-3-[(3-trifluoromethyl)phenyl]oxazolidine-S-carboxamide]", "values": [
      {"measurement": "Ki", "setting": "[4]", "result": 0.006, "unit": "nM"}
    ]},
    {"molecule": "CC(=O)c1ccc(N2C[C@@H](C(=O)N[C@@H](Cc3ccccc3)[C@H](O)CN(CC(C)C)S(=O)(=O)c3ccc(N)cc3)OC2=O)cc1", "note": "[25f, (5S)-3-(4-Acetylphenyl)-N-[(1S,2R)-3-[[(4-aminophenyl)sulfonyl](isobutyl)amino]-1-benzyl-2-hydroxypropyl]-2-oxo-oxazolidine-S-carboxamide]", "values": [
      {"measurement": "inhibitory activity against wild type HIV-1 protease (in words)", "setting": "[4]; wild type HIV-1 protease, qualitative statement", "result": "relatively small improvement in activities compared to 25a"}
    ]},
    {"molecule": "COc1ccc(S(=O)(=O)N(CC(C)C)C[C@@H](O)[C@H](Cc2ccccc2)NC(=O)[C@@H]2CN(c3ccc(F)c(F)c3)C(=O)O2)cc1", "note": "[21c, (5S)—N-[(1S,2R)-1-Benzyl-2-hydroxy-3-[isobutyl[(4-methoxyphenyl)sulfonyl]amino]-propyl]-3-(3,4-difluorophenyl)-2-oxo-oxazolidinone-S-carboxamide]", "values": [
      {"measurement": "Ki", "setting": "[4]; [5]", "result": 0.066, "unit": "nM"}
    ]}
  ]
}
